Tested on: IL-6
Details: three-component LNP based on the compound, SARS-CoV-2 antigen mRNA, 30 µg intramuscular; compared with four-component LNP of ALC-0315; FIG. 4

SMILES	expression levels of the systemic inflammatory factor IL-6
CCCCCCCCC(CCCCCC)C(=O)OCCCCCCN(CCCCO)CCCCCCOC(=O)O[C@H]1CC[C@@]2(C)C(=CC[C@H]3[C@@H]4CC[C@H]([C@H](C)CCCC(C)C)[C@@]4(C)CC[C@@H]32)C1 (stereo partly drawn) [Compound 1]	significantly reduced
CCCCCCCCC(CCCCCC)C(=O)OCCCCCCN(CCCCCCOC(=O)O[C@H]1CC[C@@]2(C)C(=CC[C@H]3[C@@H]4CC[C@H]([C@H](C)CCCC(C)C)[C@@]4(C)CC[C@@H]32)C1)CCCn1ccnc1 (stereo partly drawn) [Compound 6]	significantly reduced
CCCCCCCCC(CCCCCC)C(=O)OCCCCCCN(CCCn1ccnc1)CCOC(=O)O[C@H]1CC[C@@]2(C)C(=CC[C@H]3[C@@H]4CC[C@H]([C@H](C)CCCC(C)C)[C@@]4(C)CC[C@@H]32)C1 (stereo partly drawn) [Compound 11]	significantly reduced

Source: patent publication EP4707289A1, “STEROID-CATIONIC LIPID COMPOUND AND USE THEREOF” (priority 2023, dated 2024)
